Measurements published in paper PMC10945555, “Improving Activity of New Arylurea Agents against Multidrug-Resistant and Biofilm-Producing Staphylococcus epidermidis” (ACS Medicinal Chemistry Letters, 2024).
≈ marks a conversion by molar mass, not a printed value.

Key:
[1] = test system: biofilm-producing Staphylococcus epidermidis strains; assay: Inhibition of biofilm formation (MBIC, resazurin); type: cell-based
Protocol: After 24 hours incubation each well of
concentration of 4 mg/mL was added. […]

H9c2 cells = assay: Cytotoxicity, MTT assay, cardiomyocytes; type: cell-based; details: Rattus norvegicus, 24 h, n = 3
Protocol: The following cell models were used in the research: rat cardiomyocytes (H9c2 line) and human skin fibroblasts (BJ line). All cell lines used in the work are commercially available and were purchased from ATCC banks (the American Type Culture Collection, Manassas, VI, USA). Cell cultures were carried out in an incubator under standard conditions (37°C, 5% CO 2).
Culture media (Dulbecco's Modified Eagle's Medium -DMEM (H9c2) and Eagle's Minimum Essential Medium-EMEM (BJ) were supplemented with 10% bovine serum and a 1% mixture of penicillin and streptomycin antibiotics. […]
doxorubicin (a cytotoxic drug) were used as reference and positive control, respectively. […]
incubated with studied compound in appropriate concentration for next 24 h. Then MTT solution (5 mg/mL) was transferred into culture medium of incubated cells. After 3 h, once dark crystals of formazan were produced in cells, medium was aspirated and 100 μ L of DMSO was added to dissolve formazan. Absorbance of DMSO solution was read on a multiwell plate reader (Spectra Max iD3, Molecular Devices) at 570 nm. In order to determine viability, absorbance of experimental wells was divided by absorbance of contro l well (not treated) and multiplied by 100 (%). Three separate experiments were performed. IC 50 was calculated using non-linear regression method in OriginPro software. […]

horse red blood cells = assay: Hemolytic activity assay
Protocol: 2.3.3 Hemolytic activity assay
The hemolytic properties of tested compound were evaluated according to previously reported procedure.6 Defibrinated horse red blood cells purchased from Thermo Fisher Scientific (Germany) were washed with PBS (3000 rpm, 10 min at 4 °C) for three times followed by PBS dilution to obtain a 8% suspension. Then, 100 μL of the resulting suspensions […]
were treated with 100 μL of tested compound at the final concentration of 200 μM, and incubated at 37 °C for 1 h. Triton X-100 (2%) and PBS were used as positive and negative controls, respectively. After centrifugation at 3000 rpm for 3 min, 100 μL of the supernatants were transferred to a 96 well microtiter plate and the hemoglobin release was determined in a SpectraMax iD3 reader (Molecular Devices) by absorption at 540 nm. […]

[2] = test system: biofilm-producing Staphylococcus epidermidis strains; assay: Biofilm eradication (MBEC Assay Kit); type: cell-based
[3] = S. epidermidis ATCC 35984 (Table S4)

Work on O=S(=O)(NC1CCN(CCC(Oc2ccc(C(F)(F)F)cc2)c2ccccc2)CC1)c1cccc(Cl)c1 (stereo not drawn) [Compound 12] yielded an MBIC [1, 3] of 31.25 µg/mL, an MBIC50 ([1]; Table S4 strains) of 125 µg/mL and an MBIC ([1]; clinical strain 1 (Table S4)) of 125 µg/mL. For the same compound, the MBIC ([1]; clinical strain 2 (Table S4)) was 125 µg/mL, the MBIC ([1]; clinical strain 3 (Table S4)) was 125 µg/mL and the MBIC ([1]; clinical strain 4 (Table S4)) was 125 µg/mL. It also gave an MBIC ([1]; clinical strain 5 (Table S4)) of 62.5 µg/mL, an MBIC ([1]; clinical strain 6 (Table S4)) of 125 µg/mL and an MBIC ([1]; clinical strain 7 (Table S4)) of 125 µg/mL. The MBIC ([1]; clinical strain 8 (Table S4)) was 15.6 µg/mL, the MBIC ([1]; clinical strain 9 (Table S4)) was 125 µg/mL and the MBIC ([1]; clinical strain 11 (Table S4)) was 125 µg/mL. The MBIC ([1]; clinical strain 12 (Table S4)) was 125 µg/mL, the MBIC ([1]; clinical strain 13 (Table S4)) was 62.5 µg/mL and the MBIC ([1]; clinical strain 15 (Table S4)) was 125 µg/mL. It also gave an MBIC ([1]; clinical strain 16 (Table S4)) of 62.5 µg/mL, an MBIC ([1]; clinical strain 17 (Table S4)) of 62.5 µg/mL and an MBIC ([1]; clinical strain 19 (Table S4)) of 31.25 µg/mL. For the same compound, the MBIC ([1]; clinical strain 21 (Table S4)) was 125 µg/mL, the MBIC ([1]; clinical strain 22 (Table S4)) was 125 µg/mL and the MBIC ([1]; clinical strain 23 (Table S4)) was 31.25 µg/mL. The MBIC ([1]; clinical strain 25 (Table S4, Figure 2)) was 31.25 µg/mL, the MBIC ([1]; clinical strain 26 (Table S4)) was 125 µg/mL and the MBIC ([1]; clinical strain 27 (Table S4)) was 250 µg/mL. It also gave an MBIC ([1]; clinical strain 28 (Table S4)) of 62.5 µg/mL, an MBIC ([1]; clinical strain 29 (Table S4)) of 62.5 µg/mL and an MBIC ([1]; clinical strain 30 (Table S4)) of 62.5 µg/mL. For the same compound, the MBIC ([1]; clinical strain 33 (Table S4)) was 125 µg/mL, the MBIC ([1]; clinical strain 35 (Table S4)) was 125 µg/mL and the MBIC ([1]; clinical strain 36 (Table S4)) was 62.5 µg/mL. The MBIC ([1]; clinical strain 37 (Table S4)) was 125 µg/mL, the MBIC ([1]; clinical strain 39 (Table S4)) was 31.25 µg/mL and the MBIC ([1]; clinical strain 40 (Table S4)) was 125 µg/mL. For the same compound, the MBIC ([1]; clinical strain 41 (Table S4)) was 125 µg/mL, the MBIC ([1]; clinical strain 42 (Table S4)) was 125 µg/mL and the MBIC ([1]; clinical strain 43 (Table S4)) was 250 µg/mL. The MBIC ([1]; clinical strain 44 (Table S4)) was 31.25 µg/mL, the MBIC ([1]; clinical strain 45 (Table S4)) was 125 µg/mL and the MBIC ([1]; clinical strain 46 (Table S4)) was 125 µg/mL. It also gave an MBIC ([1]; clinical strain 47 (Table S4)) of 62.5 µg/mL, an MBIC ([1]; clinical strain 49 (Table S4)) of 31.25 µg/mL and an MBIC ([1]; clinical strain 51 (Table S4)) of 125 µg/mL. The MBIC ([1]; clinical strain 55 (Table S4)) was 125 µg/mL, the MBIC ([1]; clinical strain 58 (Table S4)) was 125 µg/mL and the MBIC ([1]; clinical strain 59 (Table S4)) was 125 µg/mL. It also gave an MBIC ([1]; clinical strain 65 (Table S4)) of 125 µg/mL, an MBIC ([1]; clinical strain 66 (Table S4)) of 125 µg/mL and an MBIC ([1]; clinical strain 67 (Table S4)) of 125 µg/mL. The MBIC ([1]; clinical strain 70 (Table S4)) was 125 µg/mL, the MBIC ([1]; clinical strain 73 (Table S4)) was 31.25 µg/mL and the MBIC ([1]; clinical strain 74 (Table S4)) was 125 µg/mL. It also gave an MBIC ([1]; clinical strain 75 (Table S4)) of 31.25 µg/mL, an MBIC ([1]; clinical strain 78 (Table S4)) of 31.25 µg/mL and an MBIC ([1]; clinical strain 79 (Table S4)) of 31.25 µg/mL. The IC50 (H9c2 cells) was 14.2 µg/mL (≈ 25.7 µM), the “%hem (hemolytic activity)” value (horse red blood cells; 200 μM, 1 h, n = 3) was 0.48% and the lysis of erythrocytes (horse red blood cells; concentrations up to 200 μM) was “None of them caused lysis of erythrocytes”. For the same compound, the MBEC [2, 3] was 31.25 µg/mL, the MBEC50 ([2]; Table S4 strains) was 125 µg/mL and the MBEC ([2]; clinical strain 1 (Table S4)) was 125 µg/mL. For the same compound, the MBEC ([2]; clinical strain 2 (Table S4)) was 125 µg/mL, the MBEC ([2]; clinical strain 3 (Table S4)) was 250 µg/mL and the MBEC ([2]; clinical strain 4 (Table S4)) was 125 µg/mL. The MBEC ([2]; clinical strain 5 (Table S4)) was 125 µg/mL, the MBEC ([2]; clinical strain 6 (Table S4)) was 125 µg/mL and the MBEC ([2]; clinical strain 7 (Table S4)) was 125 µg/mL. It also gave an MBEC ([2]; clinical strain 8 (Table S4)) of 62.5 µg/mL, an MBEC ([2]; clinical strain 9 (Table S4)) of 250 µg/mL and an MBEC ([2]; clinical strain 11 (Table S4)) of 125 µg/mL. For the same compound, the MBEC ([2]; clinical strain 12 (Table S4)) was 125 µg/mL, the MBEC ([2]; clinical strain 13 (Table S4)) was 62.5 µg/mL and the MBEC ([2]; clinical strain 15 (Table S4)) was 125 µg/mL. The MBEC ([2]; clinical strain 16 (Table S4)) was 62.5 µg/mL, the MBEC ([2]; clinical strain 17 (Table S4)) was 62.5 µg/mL and the MBEC ([2]; clinical strain 19 (Table S4)) was 31.25 µg/mL. For the same compound, the MBEC ([2]; clinical strain 21 (Table S4)) was 125 µg/mL, the MBEC ([2]; clinical strain 22 (Table S4)) was 125 µg/mL and the MBEC ([2]; clinical strain 23 (Table S4)) was 31.25 µg/mL. It also gave an MBEC ([2]; clinical strain 25 (Table S4)) of 31.25 µg/mL, an MBEC ([2]; clinical strain 26 (Table S4)) of 250 µg/mL and an MBEC ([2]; clinical strain 27 (Table S4)) of 250 µg/mL. The MBEC ([2]; clinical strain 28 (Table S4)) was 125 µg/mL, the MBEC ([2]; clinical strain 29 (Table S4)) was 125 µg/mL and the MBEC ([2]; clinical strain 30 (Table S4)) was 125 µg/mL. It also gave an MBEC ([2]; clinical strain 33 (Table S4)) of 125 µg/mL, an MBEC ([2]; clinical strain 35 (Table S4)) of 125 µg/mL and an MBEC ([2]; clinical strain 36 (Table S4)) of 125 µg/mL. For the same compound, the MBEC ([2]; clinical strain 37 (Table S4)) was 125 µg/mL, the MBEC ([2]; clinical strain 39 (Table S4)) was 31.25 µg/mL and the MBEC ([2]; clinical strain 40 (Table S4)) was 125 µg/mL. For the same compound, the MBEC ([2]; clinical strain 41 (Table S4)) was 125 µg/mL, the MBEC ([2]; clinical strain 42 (Table S4)) was 125 µg/mL and the MBEC ([2]; clinical strain 43 (Table S4)) was 250 µg/mL. The MBEC ([2]; clinical strain 44 (Table S4)) was 31.25 µg/mL, the MBEC ([2]; clinical strain 45 (Table S4)) was 125 µg/mL and the MBEC ([2]; clinical strain 46 (Table S4)) was 125 µg/mL. The MBEC ([2]; clinical strain 47 (Table S4)) was 62.5 µg/mL, the MBEC ([2]; clinical strain 49 (Table S4)) was 31.25 µg/mL and the MBEC ([2]; clinical strain 51 (Table S4)) was 250 µg/mL. The MBEC ([2]; clinical strain 55 (Table S4)) was 125 µg/mL, the MBEC ([2]; clinical strain 58 (Table S4)) was 125 µg/mL and the MBEC ([2]; clinical strain 59 (Table S4)) was 125 µg/mL. It also gave an MBEC ([2]; clinical strain 65 (Table S4)) of 125 µg/mL, an MBEC ([2]; clinical strain 66 (Table S4)) of 125 µg/mL and an MBEC ([2]; clinical strain 67 (Table S4)) of 125 µg/mL. The MBEC ([2]; clinical strain 70 (Table S4)) was 250 µg/mL, the MBEC ([2]; clinical strain 73 (Table S4)) was 31.25 µg/mL and the MBEC ([2]; clinical strain 74 (Table S4)) was 125 µg/mL. The MBEC ([2]; clinical strain 75 (Table S4)) was 31.25 µg/mL, the MBEC ([2]; clinical strain 78 (Table S4)) was 31.25 µg/mL and the MBEC ([2]; clinical strain 79 (Table S4)) was 31.25 µg/mL.
